Laboratory results published in paper PMC4052318, “Cyclodepsipeptides and Other O-Containing Heterocyclic Metabolites from Beauveria felina EN-135, a Marine-Derived Entomopathogenic Fungus” (Marine Drugs, 2014).
Converted amounts (≈) assume the structure as drawn. Numbered stars: 1 amine (or outer) side, 2 acyl side, 3 side chain; on linkers, the order of the positions; unused ones are H or OH. Square brackets hold non-standard residues; d marks the D form. Peptide text beside a SMILES is read from it. X1 = O=C([C@@H](C[C@H](O)CCl)O[*:1])[*:2]; dLac(3-vinyl) = C=CC[C@@H](O)C(=O)O; NMeV = CN[C@H](C(=O)O)C(C)C; NMeA = CN[C@@H](C)C(=O)O; βAla = NCCC(=O)O

Legend:
[1] = test system: brine shrimp (Artemia salina); test: Brine-shrimp lethality; type: in vivo; details: for LD50, lethality against brine shrimp: colchicine as positive control; for lethal rate against brine shrimp: at a concentration of 100 μg/mL
Description: The brine-shrimp (Artemia salina) lethality of the isolated compounds was determined as previously described. Colchicine was used as a positive control.

P. aeruginosa = test: Antimicrobial assay (disk diffusion and double dilution methods); type: cell-based; details: Pseudomonas aeruginosa; chloramphenicol as positive control; read-out: MIC against P. aeruginosa
Description: The antibacterial activities against E. coli, S. aureus, P. aeruginosa, V. alginolyticus, V. anguillarum, and E. tarda along with the antifungal activities against P. piricola, A. brassicae, C. gloeosporioides, and C. fusarium were investigated using the disk diffusion and double dilution methods as previously described. Chloramphenicol and amphotericin B were used as positive controls for the antibacterial and antifungal bioassays, respectively.

Compound	LD50, lethality against brine shrimp [1] [μΜ]	further results
CC[C@H](C)[C@@H]1CC(=O)NCC(=O)N[C@@H](C(C)C)C(=O)N[C@H](CC(C)C)C(=O)N[C@@H](C)C(=O)N[C@@H](C)C(=O)O1 [Compound 1, iso-isariin D]	26.58	–
C[C@@H]1CC2=C(CO1)C(=O)[C@@](C)(O)[C@H](O)C2 [Compound 2, felinone A]	–	lethal rate against brine shrimp [1]: 61.4%
C=CC[C@H]1OC(=O)CCNC(=O)[C@H](C)N(C)C(=O)[C@H](C(C)C)N(C)C(=O)[C@H]([C@@H](C)CC)NC(=O)[C@@H]2CCCN2C1=O [Compound 4, destruxin A] (cyclo([dLac(3-vinyl)]PI[NMeV][NMeA][βAla]))	5.34	–
CC[C@H](C)[C@@H]1NC(=O)[C@@H]2CCCN2C(=O)[C@@H](C[C@H](O)CCl)OC(=O)CCNC(=O)[C@H](C)N(C)C(=O)[C@H](C(C)C)N(C)C1=O [Compound 6, destruxin E chlorohydrin] (cyclo([X1]PI[NMeV][NMeA][βAla]))	2.16	–
O=C(N[C@H](CO)[C@H](O)c1ccc([N+](=O)[O-])cc1)C(Cl)Cl [chloramphenicol]	–	MIC (P. aeruginosa): 4 µg/mL (≈ 12.4 µM)
COc1cc2c(c(OC)c1OC)-c1ccc(OC)c(=O)cc1[C@@H](NC(C)=O)CC2 [colchicine, reference compound]	88.4	–
felinone B [Compound 3]	–	lethal rate against brine shrimp [1]: 59.6%
